Results reported in patent US7598377B2, “Inhibition of phosphoinositide 3-kinase β” (AstraZeneca AB, priority 2002, dated 2009).
“Also recorded” adds a separate entry of the source. Read-outs that look alike come from different tables or passages of the source.

Assays:
[1] = test system: PI 3-kinase lipid products in platelets; test: Shear-induced PI 3-kinase lipid products in platelets (cone & plate device, HPLC); format: cell-based
Description: Measurements of the lipid products PtdIns(4,5)P2 and PtdIns(3,4)P2 in intact platelets were performed by initially isolating lipids by HPLC and identifying lipid peaks using defined PtdIns(4,5)P2 and PtdIns(3,4)P2 standards. Lipids were integrated and normalized to total lipid applied and expressed as a fraction of untreated (control) samples.
For this assay, whole blood was collected in the presence of anti-coagulant [6 volumes blood to 1 volume anticoagulant (90 mM sodium citrate, 7 mM citric acid, pH 4.6, 140 mM dextrose and 70 mM theophylline)] and platelets isolated and washed using a modified method of Baezinger and Majerus (1974). Briefly, platelet-rich plasma (PRP) was obtained by centrifugation of whole blood at 200×g for 30 minutes. Platelets were then pelleted by centrifugation of the PRP at 2,000×g for 10 minutes. The platelet pellet was resuspended in platelet washing buffer (PWB) [4.3 mM K2HPO4, 4.3 mM Na2HPO4, 24.3 mM NaH2PO4, pH 6.5, 113 mM NaCl, 5.5 mM glucose, 0.5% bovine serum albumin (BSA) and 10 mM theophylline]. […] Lipid peaks co-eluting with commercially available PtdIns(3,4)P2 and PtdIns(4,5)P2 standards were integrated and normalized to total lipid applied and expressed as a fraction of control samples.

Insulin Receptor = Insulin Receptor (Homo sapiens, UniProt P06213); test: Tyrosine kinase assay by MDS Pharma Services (Panlabs); format: biochemical
p110γ-PI3K = p110γ-PI3K (Homo sapiens, UniProt P48736); test: In vitro enzyme assay, p110γ recombinant protein (Biological Example 1); format: biochemical
Sequence of p110γ-PI3K (P48736 whole entry, canonical isoform): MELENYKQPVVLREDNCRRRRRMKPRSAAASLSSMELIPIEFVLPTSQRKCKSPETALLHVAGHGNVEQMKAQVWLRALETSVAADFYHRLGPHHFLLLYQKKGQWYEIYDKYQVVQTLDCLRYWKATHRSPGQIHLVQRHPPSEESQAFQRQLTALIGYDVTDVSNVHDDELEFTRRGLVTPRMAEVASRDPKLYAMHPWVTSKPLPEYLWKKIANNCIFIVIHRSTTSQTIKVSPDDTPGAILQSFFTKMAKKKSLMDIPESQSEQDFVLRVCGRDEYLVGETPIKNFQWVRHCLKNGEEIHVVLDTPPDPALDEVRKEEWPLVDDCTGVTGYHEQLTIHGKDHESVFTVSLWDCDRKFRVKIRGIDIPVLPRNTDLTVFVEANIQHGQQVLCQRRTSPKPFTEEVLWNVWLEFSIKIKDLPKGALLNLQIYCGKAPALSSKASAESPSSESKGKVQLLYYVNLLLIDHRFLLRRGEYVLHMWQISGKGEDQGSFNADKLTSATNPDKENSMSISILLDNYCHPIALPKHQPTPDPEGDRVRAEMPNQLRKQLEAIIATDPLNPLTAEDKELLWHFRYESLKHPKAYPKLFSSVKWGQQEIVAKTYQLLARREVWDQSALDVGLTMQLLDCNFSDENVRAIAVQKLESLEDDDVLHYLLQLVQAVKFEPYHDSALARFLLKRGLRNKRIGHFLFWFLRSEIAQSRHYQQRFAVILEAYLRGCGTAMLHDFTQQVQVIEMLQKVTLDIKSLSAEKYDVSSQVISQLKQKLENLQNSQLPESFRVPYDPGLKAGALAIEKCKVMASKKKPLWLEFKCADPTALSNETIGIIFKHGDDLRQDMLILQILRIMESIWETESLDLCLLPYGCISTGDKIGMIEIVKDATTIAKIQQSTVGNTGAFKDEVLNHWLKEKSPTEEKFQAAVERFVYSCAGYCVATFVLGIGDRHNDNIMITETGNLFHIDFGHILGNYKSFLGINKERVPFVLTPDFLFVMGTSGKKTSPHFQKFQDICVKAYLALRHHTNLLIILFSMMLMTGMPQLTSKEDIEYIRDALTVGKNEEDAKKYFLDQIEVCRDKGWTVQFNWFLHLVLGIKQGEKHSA
From the text: Reactions were terminated and lipid products analysed as described above for the other PI 3-kinase isoforms assays.

p110δ-PI3K = target: T1, p110δ-PI3K (Homo sapiens, UniProt O00329); test: In vitro enzyme assay, p110δ immunoprecipitated from platelet lysate (Biological Example 1); format: biochemical; conditions: read-out: IC50 (μM), p110δ-PI3K
T1 construct: from tissue; host or cells: washed platelets (lysate, immunoprecipitated with anti-p110δ antibody)
Description: (§1) For each immunoprecipitation, 1 mg of lysate was incubated with an anti-p110α (1 μg), anti-p110β (1 μg), anti-p110δ (1 μg) or anti-PI4 kinase antibody (2-5 μg) and 50 μl of a 50% slurry of protein A beads overnight at 4° C. […] For PI4 kinase assays, protein A beads-immune complexes were also washed twice with lysis buffer, prior to two washes with 1× PI4 kinase assay buffer (20 mM Hepes, pH 7.5, 10 mM MgCl2, 0.3% Triton X-100) and the addition of other assay constituents, as described above. All reactions were terminated by the addition of 100 μl 1 M HCl, 200 μl choloroform/methanol (1:1) and 500 μl 2 M KCl and lipids extracted by centrifugation at 15,000×g for 2 minutes. The production of PI3 or PI4 kinase lipid products, PtdIns(3)P and PtdIns(4)P, were confirmed through TLC analysis. The lipid spots were then removed from the TLC plate and the level of radioactivity quantified to accurately determine the level of PtdIns(3)P/PtdIns(4)P production.

CaMK = test: Ser/Thr kinase assay by MDS Pharma Services (Panlabs); format: biochemical
[2] = test system: carotid artery occlusive thrombus formation in rats; test: Modified Folts model in rats; format: in vivo, Sprague-Dawley rats
Description: (§2) Studies were approved by the University of Melbourne Animal Ethics Committee in accordance with the guidelines of the National Health & Medical Research Council of Australia. Anaesthesia was induced in Sprague-Dawley rats (260-400 g) with sodium pentobarbitone (Nembutal; 60 mg/kg i.p.; Merial Australia Pty. Ltd., Sydney, NSW, Australia), and in New Zealand White rabbits (2-3 kg) with pentobarbitone (15 mg/kg i.v.) and fentanyl (6 μg/kg i.v.; David Bull Laboratories, Mulgrave, VIC, Australia). Animals were mechanically ventilated (Ugo Basile ventilator, Comerio, VA, Italy) with room air supplemented with O2. Body temperature was maintained throughout the experiment. Arterial blood pressure was measured via a femoral artery catheter connected to a pressure transducer (Model 1050.1, AD Instruments, Sydney, NSW) and a blood flow probe (1 mm i.d. for rats & 2.5 mm i.d. for rabbits; flowmeter […], Transonic Systems Inc., Ithaca, N.Y., USA) was placed around each (control and test) carotid artery; all parameters were recorded on a PowerLab data acquisition system (8SP; AD Instruments). A silk suture was tied loosely around 1 artery, distal to the flow probe, for subsequent stenosis. […] Carotid blood flow was monitored until it reached 0 ml/min, indicating a clot had formed at the site of stenosis. […] Again, carotid blood flow was monitored until it reached 0 ml/min, and the time recorded. […]

EGF Receptor = EGF Receptor (Homo sapiens, UniProt P00533); test: Tyrosine kinase assay by MDS Pharma Services (Panlabs); format: biochemical
Sequence of EGF Receptor (P00533 25-1210): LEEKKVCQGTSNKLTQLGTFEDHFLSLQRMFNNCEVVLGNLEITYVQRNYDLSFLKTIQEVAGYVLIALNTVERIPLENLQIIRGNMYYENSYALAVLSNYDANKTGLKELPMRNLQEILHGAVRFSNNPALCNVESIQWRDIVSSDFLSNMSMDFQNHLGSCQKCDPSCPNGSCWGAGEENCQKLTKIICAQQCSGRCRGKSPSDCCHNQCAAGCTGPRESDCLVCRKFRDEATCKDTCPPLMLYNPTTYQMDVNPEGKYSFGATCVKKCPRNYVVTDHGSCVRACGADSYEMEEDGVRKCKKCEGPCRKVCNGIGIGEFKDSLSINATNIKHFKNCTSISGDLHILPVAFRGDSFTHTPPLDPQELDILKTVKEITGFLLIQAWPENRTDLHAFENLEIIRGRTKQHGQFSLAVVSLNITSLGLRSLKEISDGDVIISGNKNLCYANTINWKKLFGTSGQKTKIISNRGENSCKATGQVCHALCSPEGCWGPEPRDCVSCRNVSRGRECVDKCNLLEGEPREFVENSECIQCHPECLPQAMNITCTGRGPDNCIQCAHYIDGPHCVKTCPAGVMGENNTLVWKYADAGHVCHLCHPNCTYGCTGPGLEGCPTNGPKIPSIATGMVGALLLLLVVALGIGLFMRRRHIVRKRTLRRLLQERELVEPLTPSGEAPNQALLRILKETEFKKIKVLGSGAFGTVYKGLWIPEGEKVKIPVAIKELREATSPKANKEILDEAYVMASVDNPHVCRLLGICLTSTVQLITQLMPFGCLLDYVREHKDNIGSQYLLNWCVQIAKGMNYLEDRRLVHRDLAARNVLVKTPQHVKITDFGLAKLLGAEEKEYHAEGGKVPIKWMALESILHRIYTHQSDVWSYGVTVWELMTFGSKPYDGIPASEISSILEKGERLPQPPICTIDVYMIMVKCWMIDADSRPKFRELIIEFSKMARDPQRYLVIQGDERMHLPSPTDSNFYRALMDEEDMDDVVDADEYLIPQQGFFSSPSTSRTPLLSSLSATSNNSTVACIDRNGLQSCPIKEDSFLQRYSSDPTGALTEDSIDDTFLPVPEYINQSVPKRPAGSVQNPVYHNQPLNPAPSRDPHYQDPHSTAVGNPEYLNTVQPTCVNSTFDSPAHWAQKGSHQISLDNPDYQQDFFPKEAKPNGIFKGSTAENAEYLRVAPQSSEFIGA

ERK1 = ERK1 (Homo sapiens, UniProt P27361); test: Ser/Thr kinase assay by MDS Pharma Services (Panlabs); format: biochemical
Sequence of ERK1 (P27361 whole entry, species assumed): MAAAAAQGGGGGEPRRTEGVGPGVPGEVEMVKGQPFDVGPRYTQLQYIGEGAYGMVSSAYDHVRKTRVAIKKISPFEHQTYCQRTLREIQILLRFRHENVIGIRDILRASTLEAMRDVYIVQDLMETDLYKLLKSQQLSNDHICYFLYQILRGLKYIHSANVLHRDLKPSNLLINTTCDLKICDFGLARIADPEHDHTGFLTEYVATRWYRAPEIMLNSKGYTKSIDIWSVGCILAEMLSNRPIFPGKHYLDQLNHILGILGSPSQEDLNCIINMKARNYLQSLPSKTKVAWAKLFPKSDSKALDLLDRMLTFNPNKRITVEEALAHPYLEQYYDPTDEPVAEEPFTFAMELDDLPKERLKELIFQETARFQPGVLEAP

rat tail bleeding time = test: Tail bleeding studies in rats; format: in vivo
Description: Rats were anaesthetised with halothane in room air supplemented with O2. Tail bleeding time was measured 15 min before drug administration (−15), and 5 and 30 min after administration. For experiments involving pretreatment with aspirin and clopidogrel, tail bleeding time was also measured before the first gavage dose at −25 h. Incisions 5 mm long and 1 mm deep were made in the tail at each time point and bleeding was monitored every 30 sec until it had ceased (=tail bleeding time).

HER2 Receptor = HER2 Receptor (Homo sapiens, UniProt P04626); test: Tyrosine kinase assay by MDS Pharma Services (Panlabs); format: biochemical
Sequence of HER2 Receptor (P04626 23-1255): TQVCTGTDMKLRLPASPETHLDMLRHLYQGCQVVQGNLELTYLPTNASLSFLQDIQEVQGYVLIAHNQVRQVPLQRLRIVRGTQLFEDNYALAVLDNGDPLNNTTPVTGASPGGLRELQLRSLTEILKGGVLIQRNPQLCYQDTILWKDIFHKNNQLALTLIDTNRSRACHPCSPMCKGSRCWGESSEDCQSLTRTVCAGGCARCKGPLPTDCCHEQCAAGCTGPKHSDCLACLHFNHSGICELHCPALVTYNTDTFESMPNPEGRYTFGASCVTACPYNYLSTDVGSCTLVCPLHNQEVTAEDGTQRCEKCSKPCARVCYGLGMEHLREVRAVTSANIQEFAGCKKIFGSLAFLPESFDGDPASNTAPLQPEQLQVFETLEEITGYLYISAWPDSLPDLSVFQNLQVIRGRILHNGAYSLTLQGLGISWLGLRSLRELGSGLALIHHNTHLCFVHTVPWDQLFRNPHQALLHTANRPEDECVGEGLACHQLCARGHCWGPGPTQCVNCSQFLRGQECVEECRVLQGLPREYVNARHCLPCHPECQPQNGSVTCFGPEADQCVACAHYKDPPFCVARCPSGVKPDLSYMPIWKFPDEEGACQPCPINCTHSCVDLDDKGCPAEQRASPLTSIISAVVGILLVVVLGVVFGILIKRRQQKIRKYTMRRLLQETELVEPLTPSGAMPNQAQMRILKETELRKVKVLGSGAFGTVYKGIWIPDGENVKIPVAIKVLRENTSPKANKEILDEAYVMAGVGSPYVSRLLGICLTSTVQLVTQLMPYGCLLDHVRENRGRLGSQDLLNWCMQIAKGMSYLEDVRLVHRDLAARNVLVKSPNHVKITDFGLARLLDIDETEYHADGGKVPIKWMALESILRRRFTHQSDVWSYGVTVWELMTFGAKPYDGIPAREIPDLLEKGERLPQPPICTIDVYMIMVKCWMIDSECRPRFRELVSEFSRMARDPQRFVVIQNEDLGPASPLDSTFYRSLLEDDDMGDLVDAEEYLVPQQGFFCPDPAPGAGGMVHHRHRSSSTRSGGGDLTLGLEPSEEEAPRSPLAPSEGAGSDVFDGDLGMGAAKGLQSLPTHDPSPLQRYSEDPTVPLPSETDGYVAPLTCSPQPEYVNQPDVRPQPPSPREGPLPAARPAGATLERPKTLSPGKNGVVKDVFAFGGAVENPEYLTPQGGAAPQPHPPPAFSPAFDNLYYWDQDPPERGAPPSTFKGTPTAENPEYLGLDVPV

PI4K = test: PI4 kinase assay, immunoprecipitated from platelet lysate; format: biochemical
Description: as §1

[3] = test system: carotid artery occlusive thrombus formation in rabbits; test: Modified Folts model in rabbits; format: in vivo, New Zealand White rabbits
Description: as §2

[4] = test system: carotid artery occlusive thrombus formation in rats; test: Electrolytic injury carotid model in rats; format: in vivo
Description: Treatments were given as an i.v. bolus at time−9 min (i.e. 5 min before applying the current). Error bars are average SEM from repeated-measures ANOVA. […] Error bars are ±1 SEM. Distal to the left carotid artery flow probe, a piece of Parafilm was inserted under the vessel for electrical isolation. The artery was placed onto a hook-shaped platinum electrode, after which, it was clamped distally to the electrode to occlude blood flow and a current of 7 mA was delivered for 4 min using a constant current unit (Model CCU1, Grass Instruments, Quincy, Mass., USA) connected to a Grass SD9 stimulator. The artery clamp was released immediately after this 4 min period. Blood flow was monitored for 60 min after the end of the stimulation. Thrombosis formation was defined by blood flow falling to zero.

Fyn = Fyn (Homo sapiens, UniProt P06241); test: Tyrosine kinase assay by MDS Pharma Services (Panlabs); format: biochemical
Sequence of Fyn (P06241 whole entry, species assumed): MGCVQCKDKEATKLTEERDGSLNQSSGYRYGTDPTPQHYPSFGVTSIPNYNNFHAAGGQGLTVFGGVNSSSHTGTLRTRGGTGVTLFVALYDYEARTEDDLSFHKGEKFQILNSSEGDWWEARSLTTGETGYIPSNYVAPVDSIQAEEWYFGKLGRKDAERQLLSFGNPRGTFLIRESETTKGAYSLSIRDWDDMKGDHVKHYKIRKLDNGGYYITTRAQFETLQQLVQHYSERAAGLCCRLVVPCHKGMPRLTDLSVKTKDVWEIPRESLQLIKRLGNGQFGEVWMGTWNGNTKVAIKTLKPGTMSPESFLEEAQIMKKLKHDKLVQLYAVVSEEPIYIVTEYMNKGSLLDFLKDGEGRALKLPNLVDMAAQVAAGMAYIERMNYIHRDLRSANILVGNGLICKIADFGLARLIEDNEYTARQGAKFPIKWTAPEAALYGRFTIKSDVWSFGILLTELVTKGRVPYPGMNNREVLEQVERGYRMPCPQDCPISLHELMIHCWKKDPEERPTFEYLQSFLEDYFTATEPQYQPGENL

Q: How did the “cellular levels of conventional phosphoinositides PtdIns, PtdIns(4)P and PtdIns(4,5)P2” value ([1]; in words) turn out when Cc1cc(C(C)Nc2ccccc2)c2nc(N3CCOCC3)cc(=O)n2c1 (racemic) [TGX-221, (±)-7-methyl-2-morpholin-4-yl-9-(1-phenylaminoethyl)-pyrido[1,2-a]pyrimidin-4-one] was run?
A: without altering

Q: What about the “PI 3-kinase lipid generation” value ([1]; shear 5000 s^−1, in words) of the same compound?
A: selectively inhibited PI 3-kinase lipid generation

Q: What about the IC50 (Insulin Receptor) of the same compound?
A: > 10 µM

Q: And the IC50 (p110γ-PI3K; Table I, read-out: inhibitory concentration, gamma)?
A: > 5 µM

Q: What about the IC50 (p110γ-PI3K; read-out: IC50 (μM), p110γ-PI3K) of the same compound?
A: > 10 µM

Q: What about the IC50 (p110δ-PI3K) of the same compound?
A: 0.1 µM

Q: What about the IC50 (CaMK) of the same compound?
A: > 10 µM

Q: And the “animals in which occlusive thrombus formation was immediately abolished” value ([2]; 2 mg/kg i.v. bolus)?
A: 100%

Q: What about the occlusive thrombus formation ([2]; 2 mg/kg, in words) of the same compound?
A: completely prevented

Q: What about the IC50 (EGF Receptor) of the same compound?
A: > 10 µM

Q: And the IC50 (ERK1)?
A: > 10 µM

Q: What about the bleeding time (rat tail bleeding time; TGX-221 2 mg/kg i.v. in combination with either clopidogrel or aspirin) of the same compound?
A: did not affect bleeding time

Q: What about the “prolonged bleeding time caused by co-administered agents” value (rat tail bleeding time; TGX-221 2 mg/kg i.v. with aspirin 200 mg/kg p.o.+heparin 100 U/kg i.v.) of the same compound?
A: did not exacerbate

Q: And the “prolonged bleeding time caused by co-administered agents” value (rat tail bleeding time; TGX-221 2 mg/kg i.v. with clopidogrel 10 mg/kg p.o.+heparin 100 U/kg i.v.)?
A: did not exacerbate

Q: What about the “rat tail bleeding time” value (rat tail bleeding time; TGX-221 20 mg/kg i.v. alone) of the same compound?
A: unaffected

Q: What about the “rat tail bleeding time” value (rat tail bleeding time; TGX-221 20 mg/kg i.v. with heparin 100 U/kg i.v.) of the same compound?
A: unaffected

Q: What about the bleeding time (rat tail bleeding time; administered at >20 fold the minimum therapeutic concentration) of the same compound?
A: did not increase bleeding time

Q: What about the “normal haemostasis as assessed by tail or ear bleeding times” value (rat tail bleeding time; in words) of the same compound?
A: did not adversely impact

Q: And the IC50 (HER2 Receptor)?
A: > 10 µM

Q: What about the IC50 (PI4K) of the same compound?
A: > 10 µM

Q: And the “inhibitory effect on PI4 kinase” value (PI4K; in words)?
A: minimal inhibitory effect

Q: And the “animals in which occlusive thrombus formation was immediately abolished” value ([3]; 2 mg/kg i.v. bolus)?
A: 100%

Q: What about the occlusive thrombus formation ([3]; 2 mg/kg, in words) of the same compound?
A: completely prevented

Q: And the “baseline arterial blood pressure, heart rate or carotid artery blood flow” value ([4]; both the Folts and electrolytic studies)?
A: no effect

Q: What about the occlusive thrombus formation ([4]; rats, 2 mg/kg in PG 5 minutes before injury, in words, 90% occlusion rate in vehicle-treated rats) of the same compound?
A: completely prevented

Q: What about the “carotid blood flow volume over the 60 min post-injury period” value ([4]; rats, 2 mg/kg, in words) of the same compound?
A: preserving; also recorded: preserved

Q: And the IC50 (Fyn)?
A: > 10 µM
